Experimental data published in ChEMBL document CHEMBL1154277, “Discovery of N-substituted pyridinones as potent and selective inhibitors of p38 kinase” (Bioorg Med Chem Lett, 2009).

Experiments:
[1] = target: Mitogen-activated protein kinase kinase kinase 8 (Homo sapiens) (UniProt P41279); assay: Inhibition of COT at 10 uM
[2] = target: Myosin light chain kinase 2, skeletal/cardiac muscle (Homo sapiens) (UniProt Q9H1R3); assay: Inhibition of MYLK2 at 10 uM
[3] = target: Tyrosine-protein kinase HCK (Homo sapiens) (UniProt P08631); assay: Inhibition of HCK at 10 uM
[4] = target: Serine/threonine-protein kinase 25 (Homo sapiens) (UniProt O00506); assay: Inhibition of YSK1 at 10 uM
[5] = target: Beta-adrenergic receptor kinase 1 (Homo sapiens) (UniProt P25098); assay: Inhibition of GRK2 at 10 uM
[6] = target: Ephrin type-A receptor 5 (Homo sapiens) (UniProt P54756); assay: Inhibition of EPHA5 at 10 uM
[7] = target: Serine/threonine-protein kinase Sgk2 (Homo sapiens) (UniProt Q9HBY8); assay: Inhibition of SGK2 at 10 uM
Chain of Serine/threonine-protein kinase Sgk2 (Homo sapiens) (Q9HBY8 whole entry): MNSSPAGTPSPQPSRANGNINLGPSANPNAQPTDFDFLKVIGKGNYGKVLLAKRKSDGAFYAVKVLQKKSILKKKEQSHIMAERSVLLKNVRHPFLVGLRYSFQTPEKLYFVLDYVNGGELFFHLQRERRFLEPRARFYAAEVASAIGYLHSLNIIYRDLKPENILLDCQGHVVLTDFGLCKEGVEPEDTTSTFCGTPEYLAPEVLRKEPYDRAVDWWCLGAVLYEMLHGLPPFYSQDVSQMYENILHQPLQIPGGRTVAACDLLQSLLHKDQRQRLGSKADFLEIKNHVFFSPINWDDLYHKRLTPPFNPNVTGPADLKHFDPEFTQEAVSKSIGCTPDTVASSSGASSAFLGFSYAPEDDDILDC

[8] = target: Dual specificity mitogen-activated protein kinase kinase 1 (Homo sapiens) (UniProt Q02750); assay: Inhibition of MEK1 at 10 uM
[9] = target: Vascular endothelial growth factor receptor 3 (Homo sapiens) (UniProt P35916); assay: Inhibition of FLT4 at 10 uM
[10] = target: Cyclin-dependent kinase 1/cyclin B1 (Homo sapiens) (UniProt P06493+P14635); assay: Inhibition of CDK1/cyclin B at 10 uM; format: protein-complex assay
[11] = target: Rho-associated protein kinase 2 (Homo sapiens) (UniProt O75116); assay: Inhibition of ROCK2 at 10 uM
Chain of Rho-associated protein kinase 2 (Homo sapiens) (O75116 whole entry, looked up): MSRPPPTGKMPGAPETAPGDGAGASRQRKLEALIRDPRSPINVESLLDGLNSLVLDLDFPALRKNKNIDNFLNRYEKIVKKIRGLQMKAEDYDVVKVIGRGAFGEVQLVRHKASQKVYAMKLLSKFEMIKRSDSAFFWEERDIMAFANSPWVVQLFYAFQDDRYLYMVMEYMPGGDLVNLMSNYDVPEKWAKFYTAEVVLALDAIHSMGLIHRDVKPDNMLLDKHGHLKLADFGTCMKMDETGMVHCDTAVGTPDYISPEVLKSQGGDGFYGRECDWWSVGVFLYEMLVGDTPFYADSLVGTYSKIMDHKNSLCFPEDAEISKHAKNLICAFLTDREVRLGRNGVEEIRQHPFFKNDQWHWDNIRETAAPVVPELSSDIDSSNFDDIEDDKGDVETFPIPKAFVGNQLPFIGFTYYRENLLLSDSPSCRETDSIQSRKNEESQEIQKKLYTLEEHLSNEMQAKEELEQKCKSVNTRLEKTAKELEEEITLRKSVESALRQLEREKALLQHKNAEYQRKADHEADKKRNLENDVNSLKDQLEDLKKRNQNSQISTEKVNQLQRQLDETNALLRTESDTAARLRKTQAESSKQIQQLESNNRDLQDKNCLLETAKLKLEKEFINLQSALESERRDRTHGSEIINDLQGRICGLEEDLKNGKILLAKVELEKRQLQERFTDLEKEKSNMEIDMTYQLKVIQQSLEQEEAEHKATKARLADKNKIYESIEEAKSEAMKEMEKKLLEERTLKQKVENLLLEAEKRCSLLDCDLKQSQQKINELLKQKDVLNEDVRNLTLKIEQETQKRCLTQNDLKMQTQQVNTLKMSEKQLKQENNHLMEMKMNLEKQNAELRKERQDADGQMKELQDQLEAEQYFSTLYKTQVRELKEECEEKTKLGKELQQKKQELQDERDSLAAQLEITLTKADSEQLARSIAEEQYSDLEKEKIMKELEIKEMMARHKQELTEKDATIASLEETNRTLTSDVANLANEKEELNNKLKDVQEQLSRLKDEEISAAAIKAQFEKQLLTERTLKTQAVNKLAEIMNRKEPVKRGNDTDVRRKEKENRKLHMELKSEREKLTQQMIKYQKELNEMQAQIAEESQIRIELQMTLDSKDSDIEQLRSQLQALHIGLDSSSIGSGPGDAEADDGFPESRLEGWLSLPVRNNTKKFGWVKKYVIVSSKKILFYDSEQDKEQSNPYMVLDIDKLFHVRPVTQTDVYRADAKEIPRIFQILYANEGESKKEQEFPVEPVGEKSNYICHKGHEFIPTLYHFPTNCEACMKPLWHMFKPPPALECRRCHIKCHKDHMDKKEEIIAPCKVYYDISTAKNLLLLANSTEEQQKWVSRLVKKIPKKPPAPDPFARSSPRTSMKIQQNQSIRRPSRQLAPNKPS

[12] = target: Serine/threonine-protein kinase Nek4 (Homo sapiens) (UniProt P51957); assay: Inhibition of NEK4 at 10 uM
[13] = target: Fibroblast growth factor receptor 4 (Homo sapiens) (UniProt P22455); assay: Inhibition of FGFR4 at 10 uM
[14] = target: Calcium/calmodulin-dependent protein kinase type II subunit beta (Homo sapiens) (UniProt Q13554); assay: Inhibition of CAMK2beta at 10 uM
Chain of Calcium/calmodulin-dependent protein kinase type II subunit beta (Homo sapiens) (Q13554 whole entry): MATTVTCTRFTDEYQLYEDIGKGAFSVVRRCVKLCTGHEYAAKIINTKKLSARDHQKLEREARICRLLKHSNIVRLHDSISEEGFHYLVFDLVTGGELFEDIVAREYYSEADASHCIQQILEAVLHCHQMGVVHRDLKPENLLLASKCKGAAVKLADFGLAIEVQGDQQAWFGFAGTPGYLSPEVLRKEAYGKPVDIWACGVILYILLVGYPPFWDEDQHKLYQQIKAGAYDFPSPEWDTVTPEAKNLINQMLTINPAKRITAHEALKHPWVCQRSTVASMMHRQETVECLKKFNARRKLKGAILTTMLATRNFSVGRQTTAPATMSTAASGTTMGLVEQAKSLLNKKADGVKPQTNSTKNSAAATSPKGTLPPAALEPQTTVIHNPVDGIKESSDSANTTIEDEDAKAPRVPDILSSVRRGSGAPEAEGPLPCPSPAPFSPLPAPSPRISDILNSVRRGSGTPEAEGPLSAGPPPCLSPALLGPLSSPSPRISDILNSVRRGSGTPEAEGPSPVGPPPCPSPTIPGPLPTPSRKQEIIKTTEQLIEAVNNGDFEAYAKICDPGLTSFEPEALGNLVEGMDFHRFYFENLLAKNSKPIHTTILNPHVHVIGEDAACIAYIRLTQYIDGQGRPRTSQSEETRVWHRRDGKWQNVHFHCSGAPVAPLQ

[15] = target: Fibroblast growth factor receptor 1 (Homo sapiens) (UniProt P11362); assay: Inhibition of FGFR1 at 10 uM
[16] = target: Calcium/calmodulin-dependent protein kinase type 1 (Homo sapiens) (UniProt Q14012); assay: Inhibition of CAMK1 at 10 uM
[17] = test system: Leucine-rich repeat serine/threonine-protein kinase 2 (Homo sapiens), Q5S007 [G2019S]; assay: Inhibition of LRRK2 G2019S mutant at 10 uM
[18] = target: Tyrosine-protein kinase JAK2 (Homo sapiens) (UniProt O60674); assay: Inhibition of JAK2 at 10 uM
[19] = target: Tyrosine-protein kinase Mer (Homo sapiens) (UniProt Q12866); assay: Inhibition of MERTK at 10 uM
[20] = target: Glycogen synthase kinase-3 alpha (Homo sapiens) (UniProt P49840); assay: Inhibition of GSK3alpha at 10 uM
[21] = target: Casein kinase I isoform gamma-1 (Homo sapiens) (UniProt Q9HCP0); assay: Inhibition of CSNK1G1 at 10 uM
Chain of Casein kinase I isoform gamma-1 (Homo sapiens) (Q9HCP0 whole entry, looked up, canonical isoform): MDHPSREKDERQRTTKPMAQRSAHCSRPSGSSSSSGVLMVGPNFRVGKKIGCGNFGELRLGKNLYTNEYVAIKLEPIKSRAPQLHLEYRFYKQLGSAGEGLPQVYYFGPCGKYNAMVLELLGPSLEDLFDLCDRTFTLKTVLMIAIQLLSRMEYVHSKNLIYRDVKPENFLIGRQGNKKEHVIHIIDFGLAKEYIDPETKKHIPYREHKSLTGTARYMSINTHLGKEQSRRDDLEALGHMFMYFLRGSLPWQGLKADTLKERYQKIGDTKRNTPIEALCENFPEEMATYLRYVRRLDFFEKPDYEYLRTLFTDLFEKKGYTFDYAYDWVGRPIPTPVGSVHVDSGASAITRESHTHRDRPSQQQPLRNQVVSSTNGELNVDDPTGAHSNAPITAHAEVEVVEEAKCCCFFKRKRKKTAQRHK

[22] = target: Calcium/calmodulin-dependent protein kinase type IV (Homo sapiens) (UniProt Q16566); assay: Inhibition of CAMK4 at 10 uM
[23] = target: Protein kinase C zeta type (Homo sapiens) (UniProt Q05513); assay: Inhibition of PKCzeta at 10 uM
[24] = target: Proto-oncogene tyrosine-protein kinase Src (Homo sapiens) (UniProt P12931); assay: Inhibition of SRC at 10 uM
[25] = target: Serine/threonine-protein kinase DCLK2 (Homo sapiens) (UniProt Q8N568); assay: Inhibition of DCK2 at 10 uM
[26] = target: Ribosomal protein S6 kinase alpha-4 (Homo sapiens) (UniProt O75676); assay: Inhibition of MSK2 at 10 uM
[27] = target: Serine/threonine-protein kinase MARK1 (Homo sapiens) (UniProt Q9P0L2); assay: Inhibition of MARK1 at 10 uM
[28] = target: Non-receptor tyrosine-protein kinase TYK2 (Homo sapiens) (UniProt P29597); assay: Inhibition of TYK2 at 10 uM
Chain of Non-receptor tyrosine-protein kinase TYK2 (Homo sapiens) (P29597 whole entry): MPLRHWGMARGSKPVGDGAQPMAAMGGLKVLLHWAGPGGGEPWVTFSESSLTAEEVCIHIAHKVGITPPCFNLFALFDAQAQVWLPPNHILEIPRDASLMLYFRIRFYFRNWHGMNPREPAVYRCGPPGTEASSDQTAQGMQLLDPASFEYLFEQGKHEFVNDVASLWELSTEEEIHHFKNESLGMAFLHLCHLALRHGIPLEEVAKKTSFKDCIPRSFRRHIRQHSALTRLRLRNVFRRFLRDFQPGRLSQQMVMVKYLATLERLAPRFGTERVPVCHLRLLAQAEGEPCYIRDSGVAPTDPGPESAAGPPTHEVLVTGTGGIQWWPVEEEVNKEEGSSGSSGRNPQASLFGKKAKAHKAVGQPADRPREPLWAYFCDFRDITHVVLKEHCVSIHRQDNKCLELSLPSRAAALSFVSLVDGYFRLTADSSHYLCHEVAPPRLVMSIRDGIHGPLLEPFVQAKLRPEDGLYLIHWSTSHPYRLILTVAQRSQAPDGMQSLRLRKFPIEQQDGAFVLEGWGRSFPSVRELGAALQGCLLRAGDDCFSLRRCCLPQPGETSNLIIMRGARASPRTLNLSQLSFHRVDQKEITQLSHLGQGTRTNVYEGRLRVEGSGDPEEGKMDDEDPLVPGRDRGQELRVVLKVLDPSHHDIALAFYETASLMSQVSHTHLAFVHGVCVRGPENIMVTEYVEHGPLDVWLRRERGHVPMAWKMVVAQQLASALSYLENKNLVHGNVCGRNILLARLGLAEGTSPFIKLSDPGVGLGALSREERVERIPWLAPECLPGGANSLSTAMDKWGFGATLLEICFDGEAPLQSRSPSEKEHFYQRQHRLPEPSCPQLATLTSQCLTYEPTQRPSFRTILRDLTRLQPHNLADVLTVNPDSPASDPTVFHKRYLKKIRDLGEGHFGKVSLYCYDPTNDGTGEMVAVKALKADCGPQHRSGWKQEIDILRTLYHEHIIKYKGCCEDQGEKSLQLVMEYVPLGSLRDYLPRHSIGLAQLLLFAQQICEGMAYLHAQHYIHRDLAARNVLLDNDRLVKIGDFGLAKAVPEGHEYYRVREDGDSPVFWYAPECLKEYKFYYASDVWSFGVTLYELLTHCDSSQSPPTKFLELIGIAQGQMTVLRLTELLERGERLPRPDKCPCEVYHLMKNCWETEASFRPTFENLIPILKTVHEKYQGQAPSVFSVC

[29] = target: Serine/threonine-protein kinase SIK2 (Homo sapiens) (UniProt Q9H0K1); assay: Inhibition of SNF1LK2 at 10 uM
[30] = target: Protein kinase C alpha type (Homo sapiens) (UniProt P17252); assay: Inhibition of PKCalpha at 10 uM
[31] = target: Serine/threonine-protein kinase PAK 6 (Homo sapiens) (UniProt Q9NQU5); assay: Inhibition of PAK6 at 10 uM
[32] = target: RAC-beta serine/threonine-protein kinase (Homo sapiens) (UniProt P31751); assay: Inhibition of AKT2 at 10 uM
[33] = target: Epidermal growth factor receptor (Homo sapiens) (UniProt P00533); assay: Inhibition of EGFR at 10 uM
[34] = target: Platelet-derived growth factor receptor beta (Homo sapiens) (UniProt P09619); assay: Inhibition of PDGFRbeta at 10 uM
[35] = target: Protein-tyrosine kinase 2-beta (Homo sapiens) (UniProt Q14289); assay: Inhibition of FAK2 at 10 uM
[36] = target: Serine/threonine-protein kinase Chk1 (Homo sapiens) (UniProt O14757); assay: Inhibition of CHK1 at 10 uM
[37] = target: G protein-coupled receptor kinase 6 (Homo sapiens) (UniProt P43250); assay: Inhibition of GRK6 at 10 uM
[38] = target: Serine/threonine-protein kinase PAK 3 (Homo sapiens) (UniProt O75914); assay: Inhibition of PAK3 at 10 uM
[39] = target: Homeodomain-interacting protein kinase 2 (Homo sapiens) (UniProt Q9H2X6); assay: Inhibition of HIPK2 at 10 uM
[40] = target: Ribosomal protein S6 kinase alpha-6 (Homo sapiens) (UniProt Q9UK32); assay: Inhibition of RSK4 at 10 uM
[41] = target: Angiopoietin-1 receptor (Homo sapiens) (UniProt Q02763); assay: Inhibition of Tie2 at 10 uM
[42] = target: Casein kinase I isoform gamma-3 (Homo sapiens) (UniProt Q9Y6M4); assay: Inhibition of CK1gamma3 at 10 uM
[43] = target: Testis-specific serine/threonine-protein kinase 2 (Homo sapiens) (UniProt Q96PF2); assay: Inhibition of TSSK2 at 10 uM
Chain of Testis-specific serine/threonine-protein kinase 2 (Homo sapiens) (Q96PF2 whole entry): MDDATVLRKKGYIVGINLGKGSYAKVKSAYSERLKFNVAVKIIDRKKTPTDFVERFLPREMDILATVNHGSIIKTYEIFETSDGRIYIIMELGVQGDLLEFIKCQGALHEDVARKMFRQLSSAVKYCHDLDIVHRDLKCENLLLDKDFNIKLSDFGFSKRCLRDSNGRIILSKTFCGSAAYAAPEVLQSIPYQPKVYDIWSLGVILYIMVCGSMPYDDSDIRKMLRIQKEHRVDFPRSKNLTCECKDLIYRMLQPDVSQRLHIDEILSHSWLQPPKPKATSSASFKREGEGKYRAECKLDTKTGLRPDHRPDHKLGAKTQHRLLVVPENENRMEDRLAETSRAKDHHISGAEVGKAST

[44] = target: AMP-activated protein kinase, AMPK (Homo sapiens) (UniProt P54646+O43741+P54619+Q9UGJ0+Q9Y478+Q13131+Q9UGI9); assay: Inhibition of AMPK alpha-2/beta-1/gamma-1 at 10 uM; format: protein-complex assay
[45] = target: Serine/threonine-protein kinase Nek7 (Homo sapiens) (UniProt Q8TDX7); assay: Inhibition of NEK7 at 10 uM
[46] = target: MAP/microtubule affinity-regulating kinase 3 (Homo sapiens) (UniProt P27448); assay: Inhibition of MARK3 at 10 uM

- inhibition [1]: < 50%
- inhibition [2]: < 50%
- inhibition [3]: < 50%
- inhibition [4]: < 50%
- inhibition [5]: < 50%
- inhibition [6]: < 50%
- inhibition [7]: < 50%
- inhibition [8]: < 50%
- inhibition [9]: < 50%
- inhibition [10]: < 50%
- inhibition [11]: < 50%
- inhibition [12]: < 50%
- inhibition [13]: < 50%
- inhibition [14]: < 50%
- inhibition [15]: < 50%
- inhibition [16]: < 50%
- inhibition [17]: < 50%
- inhibition [18]: < 50%
- inhibition [19]: < 50%
- inhibition [20]: < 50%
- inhibition [21]: < 50%
- inhibition [22]: < 50%
- inhibition [23]: < 50%
- inhibition [24]: < 50%
- inhibition [25]: < 50%
- inhibition [26]: < 50%
- inhibition [27]: < 50%
- inhibition [28]: < 50%
- inhibition [29]: < 50%
- inhibition [30]: < 50%
- inhibition [31]: < 50%
- inhibition [32]: < 50%
- inhibition [33]: < 50%
- inhibition [34]: < 50%
- inhibition [35]: < 50%
- inhibition [36]: < 50%
- inhibition [37]: < 50%
- inhibition [38]: < 50%
- inhibition [39]: < 50%
- inhibition [40]: < 50%
- inhibition [41]: < 50%
- inhibition [42]: < 50%
- inhibition [43]: < 50%
- inhibition [44]: < 50%
- inhibition [45]: < 50%
- inhibition [46]: < 50%
Compound: Cc1cc(OCc2ccc(F)cc2F)c(Br)c(=O)n1Cc1ccc(CN(C)C)cc1
